Experimental data as given in patent US11266086B2, “Efficient plant transformation method” (Wisconsin Alumni Research Foundation, priority 2018, dated 2022).

Key:
Format in all cases: in vivo
[1] = tested on: non-inoculated soybean VAEs; assay: Spectinomycin selection titration on non-inoculated soybean VAEs; settings: at 5 weeks
Excerpt: We ran a titration of spectinomycin selection levels on non-inoculated soybean VAEs, and could see visible bleaching and suppression of shooting and rooting as low as 50 ppm at 5 weeks (FIG. 5).

soybean VAEs [2] = assay: Particle bombardment of soybean VAEs with Dicot Bomb 9 and glyphosate selection; settings: for TF / Rooting Shoots: BOMB 9, glyphosate selection
Procedure: For particle bombardment experiments, gold-DNA “bead prep” was prepared by first washing 50 mg 0.6 um gold microcarriers (BioRad part #1652262) in 1 ml 100% ethanol and sonicating for 1 min 45 kHz. Gold was pelleted by centrifugation at 5000 rpm in microfuge (˜2300×g) and ethanol removed. Gold was then re-suspended in 1 ml 100% ethanol and stored at −20 C until use. To precipitate DNA onto beads, the 50 mg gold/1 ml ethanol stock was sonicated for 1 min 45 kHz. 42 ul of this stock was transferred to an Eppendorf tube, then pelleted by centrifugation at 2500 rpm for 10 seconds, after which ethanol was removed. 500 uL sterile water was added and mixture sonicated 1 min 45 kHz. Gold was again pelleted by centrifugation at 2500 rpm for 10 seconds and water removed. 25 ul sterile water was then added, followed by sonication for 1 min 45 kHz. 2.6, 1.3, or 0.65 ug VS225 DNA was added, then sterile water to bring volume up to 245 ul. 250 ul cold 2.5 M CaCl2 was added, followed by 50 ul 0.1 M spermidine. Solution was mixed by low speed vortexing. Tube was incubated on ice for approximately 1 hour with gentle inversions every 5-10 minutes. DNA/gold was pelleted at 1000 rpm (˜100×g) for 2 min and supernatant removed. Pellet was then washed with 1 ml 100% EtOH w/pipette tip, then pelleted again at 1000 rpm (˜100×g) for 2 min and supernatant removed 36 ul 100% EtOH was added to tube and gold completely re-suspended with low-speed vortexing. Bead prep was stored at −20 C until used, with 5 ul used per bombardment. This corresponds to 360, 180, or 90 ng DNA per blast; 290 ug gold per blast (1.2, 0.6, or 0.3 ng DNA per ug gold).
For blasting Soybean VAEs, meristem explants were incubated in 20% PEG4000 with 60 mg/L Captan and 30 mg/L Bravo for 1 hour, rinsed thoroughly, and pre-cultured overnight on WCIC EJW1 media at 28 C 16/8 photoperiod.
After preculture, Soybean VAEs were targeted on a 12% xantham gum holding media, 20 per plate, with meristems oriented upward. Prior to particle bombardment on the PDS-1000 helium gun, stop screens (BioRad part 1652336), 1350 psi rupture disks (BioRad 1652330), and macrocarrier holders (BioRad part 1652322) were sanitized for 1 min in 70% EtOH. Carrier sheets (BioRad part 1652335) were sanitized for 1 min in isopropanol. 1350 psi rupture disk was placed into the rupture disk retaining cap and screwed into the gas acceleration chamber. Stop screen was placed in the brass adjustable nest. 5 uL bead prep was deposited on the center of each carrier sheet loaded onto the macrocarrier holder and allowed to air dry. Macrocarrier holder was then turned over to place above retaining screen on brass nest. Macrocarrier cover lid was screwed on and completed macrocarrier launch assembly was placed on shelf directly under rupture disk. Gap distance between rupture disk and launch assembly was approximately 1 cm. Lid from target plate was removed and plate was placed on shelf 2 (2nd shelf from macrocarrier launch assembly) which is approximately 6 cm from assembly. Helium tank, PDS-1000, and vacuum were all turned on. Door was closed and vacuum applied to ˜27-28 In Hg. Fire button was depressed and held down until blast was complete. Vacuum was then released and target plate removed.
After blasting, soybean VAEs were detargeted onto WCIC EJW1 media and allowed to rest overnight at 28 C 16/8 photoperiod. Explants were then placed on WCIC Spectinomycin Selection Medium and placed in 28 C 16/8 photoperiod.
Alternate selectable markers for soybean VAE transformation—We applied soybean VAE technology to glyphosate selection, and were able to recover T0 plants from particle bombardment using Dicot Bomb 9 (FIG. 29) and the Goosegrass EPSP; where the explants were selected on 75 uM glyphosate; then rooted on 25 uM glyphosate. […] Our glyphosate selection work focused on reducing this cytokinin load during the preculture/rest phase. The T0 rooted shoots tested positive for GUS and RFP (tdTomato).

soybean VAEs [3] = assay: Agrobacterium-mediated transformation of soybean meristem explants / VAEs with TDZ in co-culture
Procedure: Soybean seeds were surface sanitized in 20% Clorox (from concentrated Clorox with 8.25% sodium hypochlorite) for 5 minutes, rinsed 5× with sterile RO water, and then primed by allowing them to sit for 2 hrs at room temperature. Seeds were then imbibed in WCIC Bean Germination Media (BGM) overnight. Meristem explants were prepared the next day by removing seed coats and cotyledons from the seed using either a manual process or in a wet mill consisting of a series of rollers and spray nozzles. Meristem explants were then either dried under a variety of conditions, or used fresh. Drying of explants was performed in either a Laminar Flow Hood (LFH) with explants resting on a filter paper exposed to air, or in a BryAir seed dryer (model VFB-3-E-DXA) on filter paper. For internal moisture determination, 0.5-1 g of dried material was placed in a 103 C oven for 16-18 hours, contents allowed to cool, then re-weighed. For use in transformation, dried explants—designated as soy VAEs (value added explants) were incubated 1-2 hours at room temperature in 20% PEG4000 (dissolved in sterile distilled water) supplemented with 60 mg/L Captan fungicide and 30 mg/L Bravo (Daconil) fungicide. Explants were then rinsed 5-6× with sterile distilled water and inoculated with Agrobacterium. […] FIGS. 3A and 3B show VAEs (3A) as compared to explants directly from just dry seed (3B).
Agrobacterium inoculum was prepared under laminar flow hood from overnight cultures derived from 20% glycerol stocks stored at −80 C. Glycerol stocks were allowed to thaw, and approximately 50 ul stock was added to 50 ml LB with 50 mg/L kanamycin (GV3101 strain); or 250 ul stock to 50 ml LB with 50 ppm kanamycin and 100 ppm carbenicillin (AGL1 strain). The VS225 binary construct with pVS1 origin of replication conferred resistance to kanamycin, and had aadA, gus, and cas9 genes on its T-DNA. The pWI-1000 binary construct with pVS1 origin of replication conferred resistance to kanamycin, and had aadA and gus on its T-DNA. The pWI-1000 dsRED binary construct with pVS1 origin of replication conferred resistance to kanamycin, and had aadA, gus, and rfp (dsRED) on its T-DNA. Cultures were grown overnight at 28° C. 200 RPM on orbital shaker (Innova 4400 incubator shaker). The next morning optical densities of cultures at 660 nm (OD660) were checked (Hach DR5000™ Spectrophotometer) under laminar flow and then centrifuged at 2619×g for 20 min (H6000A rotor on Sorvall® RC3B centrifuge). Pelleted bacteria was re-suspended in WCIC INO media under laminar flow, diluted to OD660 0.3-0.45, and incubated at room temperature 150 RPM until used (VWR orbital shaker). In some experiments acetosyringone was added to inoculum at 100 uM to help induce the vir operon.
Meristem explants were inoculated under laminar flow in inverted PlantCon® (approximately 25 ml inoculum per PlantCon®) (MP Biomedicals, LLC Cat. 26-722-06) and sonicated for 20 s, 45+/−2 kHz (L&R Sonicator Quantrex 450) in a 0.1% Triton X-100 water bath (Triton X-100 from Sigma #9002-93-1). Inoculated explants were incubated with inoculum for additional 30 min at room temperature at 75 RPM. Excess inoculum was then removed, and explants co-cultured in PlantCons® with 2.5 ml WCIC INO media supplemented with 50 mg/L nystatin, 10 mg/L TBZ, and 95 uM lipoic acid at 23 C 16/8 photoperiod. In some experiments this co-culture media was further supplemented with 1 mg/L TDZ in attempt to multiply meristematic cells and possibly suppress apical dominance. In some experiments acetosyringone was added to inoculum and/or co-culture medium at 100 uM as an inducing agent for the virulence cascade in the vir operon.
After co-culture (3-5 days) explants were transferred to 200 ppm spectinomycin WCIC B5 media. When using the GV3101 strain we supplemented this selection media with 200-400 mg/L carbenicillin to knock Agrobacterium overgrowth down. […]

CN[C@@H]1[C@H](O)[C@H](NC)[C@H]2O[C@@]3(O)C(=O)C[C@@H](C)O[C@H]3O[C@@H]2[C@H]1O [spectinomycin]
lowest spectinomycin level with visible bleaching and suppression of shooting and rooting [1]: 50 ppm

c1ccc(CNc2ncnc3nc[nH]c23)cc1 [BAP, 6-benzylaminopurine]
TF (soybean VAEs [2]; preculture and rest OR (3 ppm BAP)): 0.3%
Rooting Shoots (soybean VAEs [2]; preculture and rest OR (3 ppm BAP), 380 initial explants): 1

O=C(Nc1ccccc1)Nc1cnns1 [TDZ, thidiazuron]
TF (soybean VAEs [3]; VAE batch S16b, 5 h dry in 20 C Bryair to 8.3% moisture, 3025N, TDZ in co-culture): 0.6%
# T0 Plants (soybean VAEs [3]; VAE batch S16b, 5 h dry in 20 C Bryair to 8.3% moisture, 3025N, TDZ in co-culture, 162 explants): 1
TF (soybean VAEs [3]; VAE batch S18, 6 h dry in 20 C Bryair to 27% moisture, LD10-30087, TDZ in co-culture): 1.4%
# T0 Plants (soybean VAEs [3]; VAE batch S18, 6 h dry in 20 C Bryair to 27% moisture, LD10-30087, TDZ in co-culture, 74 explants): 1
TF (soybean VAEs [3]; VAE batch S19, 6 h dry in 20 C Bryair to 21% moisture, LD10-30092, TDZ in co-culture): 3.3%
# T0 Plants (soybean VAEs [3]; VAE batch S19, 6 h dry in 20 C Bryair to 21% moisture, LD10-30092, TDZ in co-culture, 91 explants): 3
TF (soybean VAEs [3]; VAE batch S20, 6 h dry in 20 C Bryair to 18% moisture, LD10-30094, TDZ in co-culture): 1.2%
# T0 Plants (soybean VAEs [3]; VAE batch S20, 6 h dry in 20 C Bryair to 18% moisture, LD10-30094, TDZ in co-culture, 85 explants): 1
TF (soybean VAEs [3]; VAE batch S26, 6 h dry in 20 C Bryair, W82, TDZ in co-culture (Table 12)): 4.4%
# T0 Plants (soybean VAEs [3]; VAE batch S26, 6 h dry in 20 C Bryair, W82, TDZ in co-culture, 182 explants (Table 12)): 8
TF (soybean VAEs [3]; VAE batch S27, 5 h dry in 20 C Bryair, 3849N, TDZ in co-culture): 2.1%
# T0 Plants (soybean VAEs [3]; VAE batch S27, 5 h dry in 20 C Bryair, 3849N, TDZ in co-culture, 289 explants): 6
TF (soybean VAEs [3]; W82 VAEs, 20 C Bryair 5.5 h, 1 ppm TDZ in co-culture, second set of replicates): 3.2%
# T0 Plants (soybean VAEs [3]; W82 VAEs, 20 C Bryair 5.5 h, 1 ppm TDZ in co-culture, second set of replicates, 126 explants): 4
TF (soybean VAEs [3]; W82 VAEs, 20 C Bryair 6 h, 1 ppm TDZ in co-culture, first set of replicates (Table 13b)): 5.5%
# T0 Plants (soybean VAEs [3]; W82 VAEs, 20 C Bryair 6 h, 1 ppm TDZ in co-culture, first set of replicates (Table 13b), 182 explants): 10
TF (soybean VAEs [3]; W82 VAEs, LFH 20.5 h, 1 ppm TDZ in co-culture, second set of replicates): 2.1%
# T0 Plants (soybean VAEs [3]; W82 VAEs, LFH 20.5 h, 1 ppm TDZ in co-culture, second set of replicates, 144 explants): 3
TF (soybean VAEs [3]; W82 VAEs, various drying conditions, 1 ppm TDZ in co-culture, summary of replicates): 3.8%
# R0 Plants (soybean VAEs [3]; W82 VAEs, various drying conditions, 1 ppm TDZ in co-culture, summary of replicates, 452 explants): 17
TF (soybean VAEs [3]; freshly excised Williams82, fresh sample of explants dried to generate S17 series, TDZ 1 mg/L in co-culture): 12.6%
# T0 Plants (soybean VAEs [3]; freshly excised Williams82, fresh sample of explants dried to generate S17 series, TDZ 1 mg/L in co-culture, 95 explants): 12
effect of TDZ in co-culture on transformation (soybean VAEs [3]; freshly excised soy meristem explants (S17 series), TDZ 1 mg/L in co-culture): apparent benefit
TF (soybean VAEs [2]; preculture EJW1 (1 ppm TDZ), rest EJW0 (no PGRs)): 0.4%
Rooting Shoots (soybean VAEs [2]; preculture EJW1 (1 ppm TDZ), rest EJW0 (no PGRs), 264 initial explants): 1
TF (soybean VAEs [2]; preculture and rest EJW3 (0.5 ppm TDZ)): 0.5%
Rooting Shoots (soybean VAEs [2]; preculture and rest EJW3 (0.5 ppm TDZ), 387 initial explants): 2

O=C(O)CNCP(=O)(O)O [glyphosate]
plant recovery with glyphosate selection (soybean VAEs [2]; preculture and resting media conditions of the spectinomycin protocol (EJW1 with TDZ), particle bombardment): yielded no plants
